The subject of assay [1] is SKBR3 (PI3Kα wild type) cells. In words: CellTiter-Glo 2.0 luminescent cell viability assay, 72 hours, SKBR3 cells. The class given is cell-based. The conditions noted are these: Homo sapiens, SK-BR-3, 72 h, SKBR3 (PI3Kα wild type) cells, CellTiter-Glo, approximately 72 hours; read-out: SKBR3 (WT) Viability IC50. The method, boiled down:
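Viability measured via CTG luminescence following roughly 72 hours of compound exposure at 37° C. Dosing used a 10 um starting concentration diluted 1:4 over 10 points; percent-of-vehicle data fitted with a variable-slope four-parameter model for IC50.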
Background: ATP-based viability assays read luminescence as a measure of living cells.

Assay [2] relates to T47D (PI3Kα H1047R mutant) cells. In words: CellTiter-Glo 2.0 luminescent cell viability assay, 72 hours, T47D cells. The class given is cell-based. The following applies: T47D (PI3Kα H1047R mutant) cells, CellTiter-Glo, approximately 72 hours, read-out: T47D (H1047R mutant) Viability IC50. The method, boiled down: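 Viability was measured by CellTiter-Glo 2.0 luminescence after approximately 72 h of compound exposure at 37° C. Plating was 1000 cells per well the day before dosing, with ten 1:4 dilutions from a 10 µM top concentration. Values as percent of vehicle were fitted by variable-slope log(inhibitor) regression to give IC50.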

Where two headings read alike, the source gives them in different places. Some results are limits rather than exact numbers.

For the molecule `Cc1cc([C@@H](C)Nc2ccccc2C(=O)O)c2nc(N3CCC(O)(C(C)C)C3)c(C)c(=O)n2c1` (stereo partly drawn) [Example 10-135, 2-(((1R)-1-(2-(3-hydroxy-3-isopropylpyrrolidin-1-yl)-3,7-dimethyl-4-oxo-4H-pyrido[1,2-a]pyrimidin-9-yl)ethyl)amino)benzoic acid], the IC50 was more than 10000 nM in assay [1] and 61 nM in assay [2] (Homo sapiens, T47D, 72 h).
The like results for `Cc1cc([C@@H](C)Nc2ccccc2C(=O)O)c2nc(N3CCC(C)(C#N)CC3)c(C#N)c(=O)n2c1` [Example 11-68, (R)-2-((1-(3-cyano-2-(4-cyano-4-methylpiperidin-1-yl)-7-methyl-4-oxo-4H-pyrido[1,2-a]pyrimidin-9-yl)ethyl)amino)benzoic acid] were, in that order, more than 10000 nM and 508 nM.
In the case of `Cc1cc(C(C)Nc2ccccc2C(=O)O)c2nc(N3CCCCC3)c(C(F)(F)F)c(=O)n2c1` (stereo not drawn) [Example 11-415, 2-((1-(7-methyl-4-oxo-2-(piperidin-1-yl)-3-(trifluoromethyl)-4H-pyrido[1,2-a]pyrimidin-9-yl)ethyl)amino)benzoic acid], the IC50 in assay [1] was 890 nM; in assay [2] (Homo sapiens, T47D, 72 h), 532 nM.
For `Cc1cc([C@@H](C)Nc2ccccc2C(=O)O)c2nc(N3CCC[C@@H](C(F)(F)F)C3)c(C#N)c(=O)n2c1` [Example 11-209, 2-(((R)-1-(3-cyano-7-methyl-4-oxo-2-((R)-3-(trifluoromethyl)piperidin-1-yl)-4H-pyrido[1,2-a]pyrimidin-9-yl)ethyl)amino)benzoic acid], in that order: more than 10000 nM and 439 nM.
For `Cc1cc([C@@H](C)Nc2ccccc2C(=O)O)c2nc(N3CC4C5CCC(C5O)C4C3)c(C)c(=O)n2c1` (stereo partly drawn) [Example 11-35, 2-(((1R)-1-(2-(8-hydroxyoctahydro-2H-4,7-methanoisoindol-2-yl)-3,7-dimethyl-4-oxo-4H-pyrido[1,2-a]pyrimidin-9-yl)ethyl)amino)benzoic acid], in that order: more than 10000 nM and 136 nM.
For `COc1cc2c(cc1OC)CN(c1nc3c([C@@H](C)Nc4ccccc4C(=O)O)cc(C)cn3c(=O)c1C)C2` [Example 10-139, (R)-2-((1-(2-(5,6-dimethoxyisoindolin-2-yl)-3,7-dimethyl-4-oxo-4H-pyrido[1,2-a]pyrimidin-9-yl)ethyl)amino)benzoic acid], the IC50 is more than 10000 nM in assay [1] and 74.3 nM in assay [2] (Homo sapiens, T47D, 72 h).
The like results for `Cc1cc([C@@H](C)Nc2ccccc2C(=O)O)c2nc(N3CCN(c4ccc(C(F)(F)F)cc4C#N)C[C@H]3C)c(C)c(=O)n2c1` [Example 11-79, 2-(((R)-1-(2-((R)-4-(2-cyano-4-(trifluoromethyl)phenyl)-2-methylpiperazin-1-yl)-3,7-dimethyl-4-oxo-4H-pyrido[1,2-a]pyrimidin-9-yl)ethyl)amino)benzoic acid] were, in that order, 4550 nM and 187 nM.
For `Cc1cc([C@@H](C)Nc2ccc(Cl)nc2C(=O)O)c2nc(N3CC4C(C3)C4(F)F)c(C#N)c(=O)n2c1` (stereo partly drawn) [Example 11-143, 6-chloro-3-(((1R)-1-(3-cyano-2-(6,6-difluoro-3-azabicyclo[3.1.0]hexan-3-yl)-7-methyl-4-oxo-4H-pyrido[1,2-a]pyrimidin-9-yl)ethyl)amino)picolinic acid], in that order: more than 10000 nM and 795 nM.
The like results for `COc1ccccc1-c1cc(=O)n2cc(C)cc(C(C)Nc3ccccc3C(=O)O)c2n1` (stereo not drawn) [Example 11-394, 2-((1-(2-(2-methoxyphenyl)-7-methyl-4-oxo-4H-pyrido[1,2-a]pyrimidin-9-yl)ethyl)amino)benzoic acid] were, in that order, more than 10000 nM and more than 10000 nM.
For the molecule `Cc1cc([C@@H](C)Nc2ccccc2C(=O)O)c2nc(N3CCC(F)(F)C[C@@H]3C)c(C)c(=O)n2c1` [Example 11-92, 2-(((R)-1-(2-((S)-4,4-difluoro-2-methylpiperidin-1-yl)-3,7-dimethyl-4-oxo-4H-pyrido[1,2-a]pyrimidin-9-yl)ethyl)amino)benzoic acid], the concentration for half-maximal inhibition (IC50) in assay [1] was more than 10000 nM; in assay [2] (Homo sapiens, T47D, 72 h), 213 nM.
For `Cc1cc([C@@H](C)Nc2ccccc2C(=O)O)c2nc(N3CC(F)C3)c(C#N)c(=O)n2c1` [Example 11-113, (R)-2-((1-(3-cyano-2-(3-fluoroazetidin-1-yl)-7-methyl-4-oxo-4H-pyrido[1,2-a]pyrimidin-9-yl)ethyl)amino)benzoic acid], in that order: more than 10000 nM and 249 nM.
The like results for `Cc1cc(C(C)Nc2ccccc2C(=O)O)c2nc(N3Cc4ccccc4C3)c(C#N)c(=O)n2c1` (stereo not drawn) [Example 11-349, 2-((1-(3-cyano-2-(isoindolin-2-yl)-7-methyl-4-oxo-4H-pyrido[1,2-a]pyrimidin-9-yl)ethyl)amino)benzoic acid] were, in that order, more than 10000 nM and 332 nM.
The like results for `Cc1cc([C@@H](C)Nc2ccccc2C(=O)O)c2nc(N3CCC4(CC3)CC4)c(C)c(=O)n2c1` [Example 11-221, (R)-2-((1-(3,7-dimethyl-4-oxo-2-(6-azaspiro[2.5]octan-6-yl)-4H-pyrido[1,2-a]pyrimidin-9-yl)ethyl)amino)benzoic acid] were, in that order, more than 10000 nM and 255 nM.
As for `Cc1cc([C@@H](C)Nc2ccc(Cl)nc2C(=O)O)c2nc(N3CCC(C)(C)CC3)c(C)c(=O)n2c1` [Example 11-279, (R)-6-chloro-3-((1-(2-(4,4-dimethylpiperidin-1-yl)-3,7-dimethyl-4-oxo-4H-pyrido[1,2-a]pyrimidin-9-yl)ethyl)amino)picolinic acid], the IC50 in assay [1] was more than 10000 nM; in assay [2] (Homo sapiens, T47D, 72 h) it was 192 nM.
As for `CO[C@@H]1CCN(c2nc3c([C@@H](C)Nc4ccccc4C(=O)O)cc(C)cn3c(=O)c2C#N)CC1(F)F` [Example 11-66, 2-(((R)-1-(3-cyano-2-((R)-3,3-difluoro-4-methoxypiperidin-1-yl)-7-methyl-4-oxo-4H-pyrido[1,2-a]pyrimidin-9-yl)ethyl)amino)benzoic acid], the half-maximal inhibitory concentration (IC50) in assay [1] is more than 10000 nM; in assay [2] (Homo sapiens, T47D, 72 h), 231 nM.
For `Cc1cc([C@@H](C)Nc2ccccc2C(=O)O)c2nc(N3C4CCC3c3ccccc34)c(C)c(=O)n2c1` [Example 11-215, 2-(((1R)-1-(3,7-dimethyl-4-oxo-2-(1,2,3,4-tetrahydro-1,4-epiminonaphthalen-9-yl)-4H-pyrido[1,2-a]pyrimidin-9-yl)ethyl)amino)benzoic acid], in that order: more than 10000 nM and 303 nM.
For `Cc1cc([C@@H](C)Nc2ccnnc2)c2nc(N3CCC(F)(F)CC3)c(C#N)c(=O)n2c1` [Example 11-145, (R)-2-(4,4-difluoropiperidin-1-yl)-7-methyl-4-oxo-9-(1-(pyridazin-4-ylamino)ethyl)-4H-pyrido[1,2-a]pyrimidine-3-carbonitrile], in that order: more than 10000 nM and more than 10000 nM.
`Cc1cc([C@@H](C)Nc2ccccc2C(=O)O)c2nc(N3CC(C(F)(F)F)C3)c(C#N)c(=O)n2c1` [Example 11-106, (R)-2-((1-(3-cyano-7-methyl-4-oxo-2-(3-(trifluoromethyl)azetidin-1-yl)-4H-pyrido[1,2-a]pyrimidin-9-yl)ethyl)amino)benzoic acid]: the IC50 in assay [1] was more than 10000 nM; in assay [2] (Homo sapiens, T47D, 72 h), 117 nM.
Regarding `CCc1cc([C@@H](C)Nc2ccccc2C(=O)O)c2nc(N3Cc4ccccc4C3)c(C#N)c(=O)n2c1` [Example 11-328, (R)-2-((1-(3-cyano-7-ethyl-2-(isoindolin-2-yl)-4-oxo-4H-pyrido[1,2-a]pyrimidin-9-yl)ethyl)amino)benzoic acid], the IC50 in assay [1] was found to be 6820 nM; in assay [2], 1910 nM.
Turning to `Cc1cc([C@@H](C)Nc2ccccc2C(=O)O)c2nc(N3C4CCC3CN(c3ccc(C#N)cc3)C4)c(C)c(=O)n2c1` [Example 11-183, 2-(((1R)-1-(2-(3-(4-cyanophenyl)-3,8-diazabicyclo[3.2.1]octan-8-yl)-3,7-dimethyl-4-oxo-4H-pyrido[1,2-a]pyrimidin-9-yl)ethyl)amino)benzoic acid], the concentration for half-maximal inhibition (IC50) in assay [1] is more than 10000 nM; in assay [2] (Homo sapiens, T47D, 72 h), 197 nM.
For `Cc1cc([C@@H](C)Nc2ccccc2C(=O)O)c2nc(N[C@H](C)c3cccnc3)c(C#N)c(=O)n2c1` [Example 11-51, 2-(((R)-1-(3-cyano-7-methyl-4-oxo-2-(((R)-1-(pyridin-3-yl)ethyl)amino)-4H-pyrido[1,2-a]pyrimidin-9-yl)ethyl)amino)benzoic acid], in that order: more than 10000 nM and more than 10000 nM.
In the case of `Cc1cc([C@@H](C)Nc2ccccc2C(=O)O)c2nc(N3Cc4ccc(CO)cc4C3)c(C)c(=O)n2c1` [Example 10-137, (R)-2-((1-(2-(5-(hydroxymethyl)isoindolin-2-yl)-3,7-dimethyl-4-oxo-4H-pyrido[1,2-a]pyrimidin-9-yl)ethyl)amino)benzoic acid], the IC50 in assay [1] was more than 10000 nM; in assay [2] (Homo sapiens, T47D, 72 h), 69.5 nM.
For `Cc1cc([C@@H](C)Nc2ccccc2C(=O)O)c2nc(N3CC4C(C3)C4(F)F)c(C)c(=O)n2c1` (stereo partly drawn) [Example 11-222, 2-(((1R)-1-(2-(6,6-difluoro-3-azabicyclo[3.1.0]hexan-3-yl)-3,7-dimethyl-4-oxo-4H-pyrido[1,2-a]pyrimidin-9-yl)ethyl)amino)benzoic acid], in that order: more than 10000 nM and 156 nM.
Regarding `Cc1cc([C@@H](C)Nc2ccccc2C(=O)O)c2nc(N3CC(F)(F)C[C@H]3C)c(C)c(=O)n2c1` [Example 11-125, 2-(((R)-1-(2-((R)-4,4-difluoro-2-methylpyrrolidin-1-yl)-3,7-dimethyl-4-oxo-4H-pyrido[1,2-a]pyrimidin-9-yl)ethyl)amino)benzoic acid], the IC50 is more than 10000 nM in assay [1] and 531 nM in assay [2] (Homo sapiens, T47D, 72 h).

For orientation: IC50 means the midpoint of a concentration-inhibition curve.

The record behind these values is patent US20260078120A1, “SUBSTITUTED PYRIDOPYRIMIDINONES” (MIRATI THERAPEUTICS, INC., priority 2022, published 2026).
